Laboratory results as given in article PMC3172300, “Modulation of Catalytic Activity in Multi-Domain Protein Tyrosine Phosphatases” (PLoS ONE, 2011).
Like-named read-outs stand apart in the source and are kept apart here. Square brackets hold non-standard residues; d marks the D form. Ends that are not written are not given here. Peptide text beside a SMILES is read from it. pY = N[C@@H](Cc1ccc(OP(=O)(O)O)cc1)C(=O)O

How the values were obtained:
DLAR D1 D2HSS [1] = target: T1, DLAR D1 D2HSS (Drosophila melanogaster, UniProt P16621, C1961S); assay: Surface Plasmon Resonance peptide binding, DLAR D1 D2HSS; conditions: two-site model, read-out: ka
T1 construct: DLAR 1448-2029; His tag (pET-15b or pET-22b); made in house; host or cells: E. coli BL21(DE3)
T1 sequence (P16621 1448-2029 C1961S): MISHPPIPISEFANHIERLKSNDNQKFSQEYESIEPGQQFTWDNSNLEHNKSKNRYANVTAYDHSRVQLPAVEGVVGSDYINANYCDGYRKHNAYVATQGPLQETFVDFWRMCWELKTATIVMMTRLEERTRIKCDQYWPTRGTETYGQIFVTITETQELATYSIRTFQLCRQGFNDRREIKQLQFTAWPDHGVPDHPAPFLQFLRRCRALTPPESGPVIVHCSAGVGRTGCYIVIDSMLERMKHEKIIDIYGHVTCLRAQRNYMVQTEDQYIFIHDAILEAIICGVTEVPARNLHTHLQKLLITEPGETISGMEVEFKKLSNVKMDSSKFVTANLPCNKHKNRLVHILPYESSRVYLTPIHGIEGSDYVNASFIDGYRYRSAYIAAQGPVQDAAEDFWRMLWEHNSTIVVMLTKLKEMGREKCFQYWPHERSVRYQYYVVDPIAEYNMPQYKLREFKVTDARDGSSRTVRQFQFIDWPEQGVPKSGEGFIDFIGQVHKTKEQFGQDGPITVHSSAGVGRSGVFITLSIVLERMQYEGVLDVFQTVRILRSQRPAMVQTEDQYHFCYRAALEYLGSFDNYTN
Method: The binding of phosphotyrosine peptides to the PTP domains was studied by Surface Plasmon Resonance on a Biacore-2000 instrument (BIAcore, AB). All experiments were conducted at 25°C. DLAR PTP domains were immobilized onto carboxylated dextran CM5 chips (BIAcore AB) using the standard amine coupling procedure as recommended by the manufacturer. Binding and kinetic assays were performed in 10 mM HEPES, pH 8.0, 150 mM NaCl, 10 mM DTT and 3 mM EDTA at a flow rate of 5 µL/min. The peptides were used at concentrations ranging from 50–700 µM. Dissociation was initiated by replacing the analyte with buffer. The association and dissociation curves were monitored for 600 sec. Sensograms were analyzed with BIA-evaluation software version 2 (BIAcore AB). Sensograms for DLAR D1D2, DLAR D1HSSD2 and DLAR D1D2HSS were fitted to two-site binding equations. DLAR D1 and DLAR D2 sensograms were fitted using a single-site binding model.

DLAR D1D2 = target: T2, DLAR D1D2 (Drosophila melanogaster, UniProt P16621); assay: Dephosphorylation of phosphotyrosine peptides (malachite green), DLAR D1D2; assay type: biochemical; conditions: for Km / Vmax / Kcat / Kcat/Km: 0.01 µM protein; for Km / Kcat / Kcat/Km: 25 mM citrate pH 6.0, 15 min at 25°C, malachite green; for Vmax: 25 mM citrate buffer pH 6.0, 100 mM NaCl, 2 mM DTT, 15 min at 25°C, Biomol Green, 650 nm, Michaelis-Menten fit; for substrate preference: order of peptide substrates, DLAR D1D2
T2 construct: DLAR 1448-2029; His tag (pET-15b or pET-22b); made in house; host or cells: E. coli BL21(DE3)
T2 sequence (P16621 1448-2029): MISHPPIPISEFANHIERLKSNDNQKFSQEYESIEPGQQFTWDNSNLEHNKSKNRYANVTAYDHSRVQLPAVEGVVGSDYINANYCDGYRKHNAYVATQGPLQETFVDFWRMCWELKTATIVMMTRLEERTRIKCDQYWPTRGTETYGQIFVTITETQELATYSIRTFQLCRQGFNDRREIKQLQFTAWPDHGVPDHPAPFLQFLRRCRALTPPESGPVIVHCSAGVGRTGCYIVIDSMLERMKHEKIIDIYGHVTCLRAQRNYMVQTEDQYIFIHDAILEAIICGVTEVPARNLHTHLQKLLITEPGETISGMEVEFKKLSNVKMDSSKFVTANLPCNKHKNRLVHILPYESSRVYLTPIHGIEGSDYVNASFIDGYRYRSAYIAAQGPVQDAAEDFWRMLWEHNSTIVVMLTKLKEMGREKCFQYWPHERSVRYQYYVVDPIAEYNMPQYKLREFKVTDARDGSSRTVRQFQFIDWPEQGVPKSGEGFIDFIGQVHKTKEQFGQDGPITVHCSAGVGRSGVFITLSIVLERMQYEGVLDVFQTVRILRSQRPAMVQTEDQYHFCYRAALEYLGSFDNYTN
Excerpt: (§1) Substrates of PTPs characterized thus far include the activation loop segments of various kinases and regulatory loops of other signaling proteins. Suitably designed peptide substrates mimic the physiologically relevant substrates of PTPs. In the present study, peptide substrates were designed for DLAR for which more information was available on its interacting partners. […] The five peptides were chosen based on their distinct charge distributions around the central phosphotyrosine residue. The phosphorylated as well as non-phosphorylated peptides were obtained from GL Bioscience, China. The peptides were >95% pure and were used after a single round of desalting using a Sephadex G25 column (GE Healthcare). The concentration of the peptide samples for biochemical studies was ascertained by UV absorption at 268 nm for the pY residue.
(§2) Phosphatase activity of the recombinant PTP domains was determined by using para-Nitrophenylphosphate (pNPP), a small molecule generic substrate, as well as phosphotyrosine containing peptides. The pNPP assay was performed as reported previously, with a modification in the buffer composition (25 mM Citrate, Glycine and HEPES (CGH), pH 6.5, 100 mM NaCl and 2 mM DTT). Phosphatase activity with the phosphotyrosine peptides was ascertained by the malachite green reaction as described for PTPs previously. Briefly, the reaction mixture comprised of 0.01 µM protein incubated with increasing concentrations of different peptides in 25 mM citrate buffer pH 6.0, 100 mM NaCl and 2 mM DTT for 15 min at 25°C. The reaction was stopped by the addition of the Biomol Green reagent (Enzo Life Sciences) and the colour developed after 20 min was quantified at 650 nm. For all the assays, kinetic constants for the steady state catalysis were obtained by fitting the reaction curves to the Michaelis-Menten equation using the nonlinear regression module of Sigma plot software (Systat Software, Inc.).

DLAR D1 D2HSS [2] = target: T1, DLAR D1 D2HSS; assay type: biochemical; conditions: 0.01 µM protein; for Km / Kcat / Kcat/Km: 25 mM citrate pH 6.0, 15 min at 25°C, malachite green; for Vmax: 25 mM citrate buffer pH 6.0, 100 mM NaCl, 2 mM DTT, 15 min at 25°C, Biomol Green, 650 nm, Michaelis-Menten fit
Excerpt: as §1, §2

PTP99A D1D2 = target: T3, PTP99A D1D2 (Drosophila melanogaster, UniProt P35832); assay: Dephosphorylation of phosphotyrosine peptides (malachite green), PTP99A D1D2; conditions: for Vmax / Kcat / Kcat/Km / Km: 0.01 µM protein; for Vmax: 25 mM citrate buffer pH 6.0, 100 mM NaCl, 2 mM DTT, 15 min at 25°C, Biomol Green, 650 nm, Michaelis-Menten fit; for Kcat / Kcat/Km / Km: 25 mM citrate pH 6.0, 15 min at 25°C, malachite green; for substrate preference: order of peptide substrates, PTP99A D1D2
T3 sequence (P35832 450-1050): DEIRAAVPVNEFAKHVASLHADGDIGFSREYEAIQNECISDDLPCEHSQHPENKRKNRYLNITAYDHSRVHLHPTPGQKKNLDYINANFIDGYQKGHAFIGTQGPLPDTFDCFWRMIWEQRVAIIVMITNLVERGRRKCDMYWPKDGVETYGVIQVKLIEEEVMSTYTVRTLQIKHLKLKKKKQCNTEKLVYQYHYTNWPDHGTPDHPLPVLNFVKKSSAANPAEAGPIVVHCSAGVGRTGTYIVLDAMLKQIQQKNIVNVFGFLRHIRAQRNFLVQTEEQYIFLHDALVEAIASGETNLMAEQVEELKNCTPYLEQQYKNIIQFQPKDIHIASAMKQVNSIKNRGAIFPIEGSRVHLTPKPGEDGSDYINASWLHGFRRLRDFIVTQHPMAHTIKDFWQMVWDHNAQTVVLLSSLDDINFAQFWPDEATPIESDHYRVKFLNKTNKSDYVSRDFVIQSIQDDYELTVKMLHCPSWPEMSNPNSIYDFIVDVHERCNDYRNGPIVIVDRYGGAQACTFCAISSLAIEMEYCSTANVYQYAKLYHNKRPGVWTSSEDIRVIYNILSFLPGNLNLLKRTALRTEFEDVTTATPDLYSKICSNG
Excerpt: as §1, §2

Compound: CC(C)C[C@H](NC(=O)[C@H](C)NC(=O)CNC(=O)[C@H](Cc1ccc(OP(=O)(O)O)cc1)NC(=O)[C@H](CC(=O)O)NC(=O)[C@@H]1CCCN1C(=O)[C@H](CCC(=O)O)NC(=O)[C@H](C)NC(=O)[C@@H](N)[C@@H](C)O)C(=O)N[C@@H](Cc1ccc(O)cc1)C(=O)N[C@@H](CCC(=O)O)C(=O)O [Cuticle peptide] (H-TAEPD[pY]GALYE-OH)
- kon (DLAR D1 D2HSS [1]; pH 8, SPR Biacore-2000, 25°C, 10 mM HEPES pH 8.0, 150 mM NaCl, 10 mM DTT, 3 mM EDTA, peptides 50–700 µM, first binding site): 51.7 ± 0.61 M⁻¹ s⁻¹
- kon (DLAR D1 D2HSS [1]; pH 8, SPR, 25°C, pH 8.0, second binding site): 1.37 ± 0.4 M⁻¹ s⁻¹
- Km (DLAR D1D2): 105 ± 12.4 µM
- Km (DLAR D1 D2HSS [2]): 162 ± 13.8 µM

Compound: CDDS[pY]FGNKC (cysteine pairing not given here) [Myospheroid peptide, phosphotyrosine peptide CDDSpYFGNKC from PeptideMine server, obtained from GL Bioscience, >95% pure]
- Vmax (PTP99A D1D2): 1.09 ± 0.03 µmol/min/mg
- Kcat (PTP99A D1D2): 1.35 ± 0.03 s⁻¹
- Kcat/Km (PTP99A D1D2): 44.1 ± 1.22 x 10^4 sec^-1M^-1
- Km (PTP99A D1D2): 3.06 ± 0.36 µM
- substrate preference (PTP99A D1D2): Insulin Receptor peptide>Cuticle peptide>Myospheroid>Abelson peptide>Nervous fingers peptide
- Vmax (DLAR D1D2): 13.86 ± 0.39 µmol/min/mg
- Kcat (DLAR D1D2): 16.53 ± 0.47 s⁻¹
- Kcat/Km (DLAR D1D2): 14.28 ± 0.05 x 10^4 sec^-1M^-1
- Km (DLAR D1D2; read-out: Km): 116 ± 8.69 µM
- substrate preference (DLAR D1D2): Cuticle peptide>Insulin receptor peptide>Nervous fingers peptide>Abelson peptide>Myospheroid peptide
- Vmax (DLAR D1 D2HSS [2]): 3.11 ± 0.12 µmol/min/mg
- Kcat (DLAR D1 D2HSS [2]): 3.7 ± 0.15 s⁻¹
- Kcat/Km (DLAR D1 D2HSS [2]): 5.79 ± 0.08 x 10^4 sec^-1M^-1
- Km (DLAR D1 D2HSS [2]; read-out: Km): 63.9 ± 7.99 µM

Compound: RDDT[pY]TAHAG [Abelson peptide, phosphotyrosine peptide RDDTpYTAHAG from PeptideMine server, obtained from GL Bioscience, >95% pure]
- Vmax (PTP99A D1D2): 2.59 ± 0.07 µmol/min/mg
- Kcat (PTP99A D1D2): 3.21 ± 0.08 s⁻¹
- Kcat/Km (PTP99A D1D2): 19.97 ± 0.15 x 10^4 sec^-1M^-1
- Km (PTP99A D1D2): 16.3 ± 1.55 µM
- substrate preference (PTP99A D1D2): Insulin Receptor peptide>Cuticle peptide>Myospheroid>Abelson peptide>Nervous fingers peptide
- Vmax (DLAR D1D2): 3.39 ± 0.19 µmol/min/mg
- Kcat (DLAR D1D2): 4.05 ± 0.22 s⁻¹
- Kcat/Km (DLAR D1D2): 17.96 ± 0.16 x 10^4 sec^-1M^-1
- Km (DLAR D1D2; read-out: Km): 22.6 ± 4.88 µM
- substrate preference (DLAR D1D2): Cuticle peptide>Insulin receptor peptide>Nervous fingers peptide>Abelson peptide>Myospheroid peptide
- Vmax (DLAR D1 D2HSS [2]): 0.6 ± 0.01 µmol/min/mg
- Kcat (DLAR D1 D2HSS [2]): 0.72 ± 0.01 s⁻¹
- Kcat/Km (DLAR D1 D2HSS [2]): 5.82 ± 0.07 x 10^4 sec^-1M^-1
- Km (DLAR D1 D2HSS [2]; read-out: Km): 12.4 ± 1.07 µM

Compound: VIGD[pY]VCRLCK (cysteine pairing not given here) [Nervous Fingers peptide, phosphotyrosine peptide VIGDpYVCRLCK from PeptideMine server, obtained from GL Bioscience, >95% pure]
- Vmax (PTP99A D1D2): 8.89 ± 0.38 µmol/min/mg
- Kcat (PTP99A D1D2): 11.01 ± 0.46 s⁻¹
- Kcat/Km (PTP99A D1D2): 6.12 ± 0.12 x 10^4 sec^-1M^-1
- Km (PTP99A D1D2): 180 ± 15 µM
- substrate preference (PTP99A D1D2): Insulin Receptor peptide>Cuticle peptide>Myospheroid>Abelson peptide>Nervous fingers peptide
- Vmax (DLAR D1D2): 12.41 ± 0.68 µmol/min/mg
- Kcat (DLAR D1D2): 14.79 ± 0.81 s⁻¹
- Kcat/Km (DLAR D1D2): 19.59 ± 0.11 x 10^4 sec^-1M^-1
- Km (DLAR D1D2; read-out: Km): 75.5 ± 12.5 µM
- substrate preference (DLAR D1D2): Cuticle peptide>Insulin receptor peptide>Nervous fingers peptide>Abelson peptide>Myospheroid peptide
- Vmax (DLAR D1 D2HSS [2]): 7.9 ± 0.35 µmol/min/mg
- Kcat (DLAR D1 D2HSS [2]): 9.42 ± 0.42 s⁻¹
- Kcat/Km (DLAR D1 D2HSS [2]): 7.02 ± 0.07 x 10^4 sec^-1M^-1
- Km (DLAR D1 D2HSS [2]; read-out: Km): 134 ± 14.9 µM
